Reference: US9334269B2, “Carboxamides as inhibitors of voltage-gated sodium channels” (AMGEN INC., priority 2010, dated 2016)

What follows are compounds tested against T1, human Nav1.7 (hNav1.7) (Homo sapiens, UniProt Q15858) (assay: hNav1.7 whole-cell patch-clamp electrophysiology (automated PatchXpress 7000A or manual) in stably expressing 293 cells). Settings: average IC50.
T1 construct: expressed in transfected cells
Format: cell-based
In short: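 Stably transfected 293 cells lacking endogenous sodium channels; peak current evoked by depolarizing pulses during increasing compound concentrations, automated at ~20% fractional inactivation, or manually at −140 mV (resting) and ~20% inactivation. Block taken at steady state, corrected for rundown; IC50 by Hill fit.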

T1 sequence (Q15858 whole entry): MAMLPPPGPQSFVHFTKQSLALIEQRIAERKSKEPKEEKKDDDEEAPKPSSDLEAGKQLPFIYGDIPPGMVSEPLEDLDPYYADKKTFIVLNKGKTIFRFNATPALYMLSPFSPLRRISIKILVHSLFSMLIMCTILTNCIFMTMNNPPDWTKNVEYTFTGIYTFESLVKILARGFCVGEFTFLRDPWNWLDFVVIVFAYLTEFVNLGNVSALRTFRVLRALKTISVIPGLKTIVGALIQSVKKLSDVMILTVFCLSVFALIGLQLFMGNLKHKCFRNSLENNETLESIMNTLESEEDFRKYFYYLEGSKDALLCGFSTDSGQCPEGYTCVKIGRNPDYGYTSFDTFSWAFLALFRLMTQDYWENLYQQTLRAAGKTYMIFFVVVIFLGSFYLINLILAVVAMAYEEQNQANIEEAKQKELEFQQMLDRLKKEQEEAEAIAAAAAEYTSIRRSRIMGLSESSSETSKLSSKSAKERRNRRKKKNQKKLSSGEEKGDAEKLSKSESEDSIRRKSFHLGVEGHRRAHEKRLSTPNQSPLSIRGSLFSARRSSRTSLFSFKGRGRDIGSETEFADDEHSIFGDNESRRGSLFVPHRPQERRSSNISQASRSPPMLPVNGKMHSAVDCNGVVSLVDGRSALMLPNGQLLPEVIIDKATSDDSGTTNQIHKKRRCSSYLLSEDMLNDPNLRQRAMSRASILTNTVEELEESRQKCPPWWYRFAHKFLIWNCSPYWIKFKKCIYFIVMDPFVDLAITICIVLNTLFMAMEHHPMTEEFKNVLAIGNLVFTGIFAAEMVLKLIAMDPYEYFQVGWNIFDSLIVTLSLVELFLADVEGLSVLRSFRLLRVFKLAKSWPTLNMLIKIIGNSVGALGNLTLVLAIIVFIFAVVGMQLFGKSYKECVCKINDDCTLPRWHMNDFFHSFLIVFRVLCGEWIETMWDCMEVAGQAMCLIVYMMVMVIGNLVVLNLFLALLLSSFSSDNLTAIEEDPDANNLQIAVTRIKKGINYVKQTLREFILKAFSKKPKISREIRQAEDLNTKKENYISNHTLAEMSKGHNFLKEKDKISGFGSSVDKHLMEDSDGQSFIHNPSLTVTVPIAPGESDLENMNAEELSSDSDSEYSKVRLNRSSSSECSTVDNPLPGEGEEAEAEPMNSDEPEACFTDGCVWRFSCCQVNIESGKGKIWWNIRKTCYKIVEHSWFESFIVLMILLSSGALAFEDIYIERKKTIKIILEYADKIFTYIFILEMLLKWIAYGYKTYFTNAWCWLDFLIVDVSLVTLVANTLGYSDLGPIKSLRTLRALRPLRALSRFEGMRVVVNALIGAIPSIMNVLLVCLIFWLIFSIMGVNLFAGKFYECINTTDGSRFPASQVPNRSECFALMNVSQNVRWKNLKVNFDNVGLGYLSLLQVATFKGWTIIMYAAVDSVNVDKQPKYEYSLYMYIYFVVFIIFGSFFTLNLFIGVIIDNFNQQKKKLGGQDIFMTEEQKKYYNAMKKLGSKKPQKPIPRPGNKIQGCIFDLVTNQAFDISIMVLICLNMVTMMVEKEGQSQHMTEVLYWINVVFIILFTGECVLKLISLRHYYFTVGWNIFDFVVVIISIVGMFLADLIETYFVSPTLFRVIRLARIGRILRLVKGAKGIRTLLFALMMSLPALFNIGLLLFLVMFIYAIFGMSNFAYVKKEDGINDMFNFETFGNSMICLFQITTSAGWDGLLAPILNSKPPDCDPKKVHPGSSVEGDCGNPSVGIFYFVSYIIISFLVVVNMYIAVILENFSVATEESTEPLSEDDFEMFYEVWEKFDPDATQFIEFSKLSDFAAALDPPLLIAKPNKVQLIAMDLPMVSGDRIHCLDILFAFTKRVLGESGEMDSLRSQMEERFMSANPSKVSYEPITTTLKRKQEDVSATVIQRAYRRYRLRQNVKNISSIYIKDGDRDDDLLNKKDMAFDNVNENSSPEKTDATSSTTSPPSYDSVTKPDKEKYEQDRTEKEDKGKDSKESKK

IC50 [µM] | Structure (SMILES)
> 30 | CCN1C(=O)C2(CCN(c3ncnc(Nc4cccc(C(=O)NC)c4)n3)CC2)c2ccccc21 [Example 290]
> 30 | CNC(=O)c1cccc(Nc2ncnc(NCCc3nc4cc(Cl)ccc4[nH]3)n2)c1 [Example 288]
22.1 | CNC(=O)c1cccc(Nc2ncnc(N3CC(C)(COc4ccccc4)C3)n2)c1 [Example 273]
26.4 | CNC(=O)c1cccc(Nc2ncnc(N3CCc4ccc(Cl)cc4C3)n2)c1 [Example 279]
27.7 | CNC(=O)c1cccc(Nc2ncnc(N(C)Cc3nc(-c4ccccc4)no3)n2)c1 [Example 280]
21.1 | CNC(=O)c1cccc(Nc2ncnc(N3CC(Oc4ccc(F)cc4)C3)n2)c1F [Example 270]
21 | CNC(=O)c1cccc(Nc2ncnc(N3CCc4cccc(C(F)(F)F)c4C3)n2)c1 [Example 269]
> 30 | CNC(=O)c1cccc(Nc2ncnc(N3CCC(CCCc4ccccc4)CC3)n2)c1 [Example 294]
18.1 | CNC(=O)c1cccc(Nc2ncnc(N3CC(C)(Oc4ccccc4)C3)n2)c1 [Example 263]

Same assay, conditions: average IC50, human Nav1.7

Structure (SMILES) | IC50 [µM]
CNC(=O)c1cccc(Nc2ncnc(N3CCN(c4ccc(C)c(C)c4)CC3)n2)c1 [Example 53] | 0.69
CNC(=O)c1cccc(Nc2ncnc(N3CCN(c4ccc(OC(F)(F)F)cc4)CC3)n2)c1 [Example 82] | 1.06
CNC(=O)c1cccc(Nc2ncnc(N3CC(C)(Oc4ccc(C)cc4)C3)n2)c1 [Example 182] | 5.1
CNC(=O)c1cccc(Nc2ncnc(N3CCc4cc(OCC(F)(F)F)ccc4C3)n2)c1 [Example 41] | 0.52
CNC(=O)c1cccc(Nc2ncnc(N3CCc4cc(C5CC5)ccc4C3)n2)c1 [Example 92] | 1.29
CNC(=O)c1cccc(Nc2ncnc(N3CCC(Oc4ccc(C(F)(F)F)cc4)CC3)n2)c1 [Example 118] | 2.02
CNC(=O)c1cccc(Nc2ncnc(N3CCN(c4cccc(Cl)c4)CC3)n2)c1 [Example 69] | 0.87
CNC(=O)c1cccc(Nc2cc(N3CC(Oc4ccc(F)cc4)C3)ccn2)c1 [Example 179] | 4.84
CNC(=O)c1cccc(Nc2ncnc(N3CC(Oc4cc(F)cc(F)c4)C3)n2)c1 [Example 187] | 5.43
CCNC(=O)c1cccc(Nc2ncnc(N3CC(Oc4ccc(F)cc4)C3)n2)c1 [Example 102] | 1.51
CNC(=O)c1cccc(Nc2ncnc(N3CCN(c4ccc(OC(F)(F)F)cc4)CC3)n2)c1C [Example 202] | 7.12
CNC(=O)c1c(F)ccc(Nc2ncnc(N3CC(Oc4ccc(Cl)cc4)C3)n2)c1F [Example 183] | 5.19
CNC(=O)c1cccc(Nc2ncnc(N3CC(Oc4ccc(C(F)(F)F)cc4Cl)C3)n2)c1 [Example 194] | 5.97
CNC(=O)c1cccc(Nc2ncnc(N3CCN(c4ccccc4C)CC3)n2)c1 [Example 89] | 1.26
CNC(=O)c1cccc(Nc2ncnc(N3CC(Oc4cccc(C(C)(C)C)c4)C3)n2)c1 [Example 134] | 2.58
CNC(=O)c1cccc(Nc2ncnc(N3CCN(c4cccc(OC)c4)CC3)n2)c1 [Example 44] | 0.61
CNC(=O)c1cc(Nc2ncnc(N3CC(COc4ccc(Cl)cc4)C3)n2)ccc1Cl [Example 90] | 1.26
CNC(=O)c1cccc(Nc2ncnc(N3CC(Oc4ccc(C(C)(C)C)cc4)C3)n2)c1 [Example 149] | 2.99
CNC(=O)c1cccc(Nc2ncnc(N3CCC(Oc4ccc(OC(F)(F)F)cc4)CC3)n2)c1 [Example 58] | 0.76
CNC(=O)c1cccc(Nc2ncnc(N3CCC(C(=O)c4ccc(Cl)cc4)CC3)n2)c1 [Example 36] | 0.49
CNC(=O)c1cccc(Nc2ncnc(N3CC(Oc4cc(F)ccc4F)C3)n2)c1 [Example 177] | 4.72

Structure (SMILES) | IC50 [µM]
CNC(=O)c1cccc(Nc2ncnc(N3CC(COc4cccc(C(F)(F)F)c4)C3)n2)c1 [Example 188] | 5.44
CNC(=O)c1cccc(Nc2ncnc(N3CCN(c4cccc(OC(F)(F)F)c4)CC3)n2)c1 [Example 23] | 0.35
CNC(=O)c1cccc(Nc2ncnc(N3CC(COc4cccc(OC(F)(F)F)c4)C3)n2)c1 [Example 171] | 4.33
CNC(=O)c1cccc(Nc2ncnc(N3CC(COc4ccc(Cl)cc4Cl)C3)n2)c1 [Example 132] | 2.55
CNC(=O)c1cccc(Nc2nccc(N3CC(Oc4ccc(OC)cc4)C3)n2)c1 [Example 31] | 0.43
C#Cc1cccc(OC2CN(c3ncnc(Nc4cccc(C(=O)NC)c4)n3)C2)c1 [Example 78] | 0.99
CNC(=O)c1cccc(Nc2ncnc(N3CCCC(Oc4ccccc4Cl)C3)n2)c1 (centres unmarked) [Example 212] | 8.31
CNC(=O)c1cccc(Nc2ncnc(N3CC(Oc4ccc5c(c4)CCC5)C3)n2)c1 [Example 22] | 0.35
CNC(=O)c1cccc(Nc2ncnc(N3CC(Oc4ccc(F)cc4)C3)n2)c1 [Example 61] | 0.81
CNC(=O)c1cccc(Nc2ncnc(N3CCC(C(=O)c4ccccc4)CC3)n2)c1 [Example 88] | 1.24
CNC(=O)c1cccc(Nc2ncnc(N3CCc4cc(C)ccc4C3)n2)c1 [Example 185] | 5.28
COCCNC(=O)c1cccc(Nc2ncnc(N3CC(Oc4ccc(F)cc4)C3)n2)c1 [Example 38] | 0.5
CNC(=O)c1cccc(Nc2ncnc(N3CCN(c4ccccc4OC(F)(F)F)CC3)n2)c1 [Example 172] | 4.45
CNC(=O)c1cccc(Nc2ncnc(N3CCN(c4ccc(OC)cc4)CC3)n2)c1 [Example 159] | 3.5
CNC(=O)c1cccc(Nc2ncnc(N3CCC(n4cc(-c5ccc(Cl)cc5)cn4)CC3)n2)c1 [Example 167] | 4.16
CNC(=O)c1cc(F)cc(Nc2ncnc(N3CCC(c4nc(-c5ccccc5)cs4)CC3)n2)c1 [Example 103] | 1.56
CNC(=O)c1cccc(Nc2ncnc(N3CC(Oc4cc(C)ccc4F)C3)n2)c1 [Example 155] | 3.17
CNC(=O)c1cccc(Nc2ncnc(N3CC=C(c4nc(-c5ccccc5)cs4)CC3)n2)c1 [Example 52] | 0.66
CNC(=O)c1cccc(Nc2ncnc(N3CC(Oc4ccccc4C(F)(F)F)C3)n2)c1 [Example 141] | 2.79
CNC(=O)c1cccc(Nc2ncnc(N3CC(Oc4ccc(C(C)C)cc4)C3)n2)c1 [Example 42] | 0.57
CNC(=O)c1cccc(Nc2ncnc(N3CC(Oc4ccccc4OC(F)(F)F)C3)n2)c1 [Example 181] | 4.93

Further lines, results first:

IC50 [µM] | Structure (SMILES)
15.7 | CNC(=O)c1cccc(Nc2ncnc(NCc3nc(-c4ccccc4)no3)n2)c1 [Example 254]
12.9 | CNC(=O)c1cccc(Nc2ncnc(N3CCC(c4ccc(C#N)c(OC(F)(F)F)c4)CC3)n2)c1 [Example 248]
11.5 | CNC(=O)c1cccc(Nc2ncnc(N3CCc4ccccc4C3)n2)c1 [Example 243]
9.66 | CNC(=O)c1cccc(Nc2ncnc(N3CCC(c4nc(C(C)C)no4)CC3)n2)c1 [Example 231]
9.31 | CNC(=O)c1cccc(Nc2ncnc(N3CCc4c(F)cccc4C3)n2)c1 [Example 225]
12.7 | CCCc1noc(C2CCN(c3ncnc(Nc4cccc(C(=O)NC)c4)n3)CC2)n1 [Example 246]
9.5 | CNC(=O)c1cccc(Nc2ncnc(N3CCC(Cc4ccccc4)CC3)n2)c1 [Example 230]
12.5 | CNC(=O)c1cccc(Nc2ncnc(N3CCC(C#N)(c4ccc(F)cc4)CC3)n2)c1 [Example 245]
16 | CNC(=O)c1cccc(Nc2ncnc(N3CC(COc4ccc(Cl)c5cccnc45)C3)n2)c1 [Example 255]
12.8 | CNC(=O)c1cccc(Nc2ncnc(N3CC(COc4ccccc4Cl)C3)n2)c1 [Example 247]
8.47 | CNC(=O)c1cccc(Nc2ncnc(N3CC(Oc4ccc(OCc5ccccc5)cc4)C3)n2)c1 [Example 214]

Same assay, conditions: human Nav1.7 stably expressed in 293 cells; whole-cell patch clamp; average IC50 from Hill fit

IC50 [µM] | Structure (SMILES)
2.26 | CNC(=O)c1cccc(Nc2ccnc(N3CC(Oc4ccc(Cl)cc4F)C3)n2)c1 [Example AJ, 3-((2-(3-(4-chloro-2-fluorophenoxy)-1-azetidinyl)-4-pyrimidinyl)amino)-N-methylbenzamide]
> 30 | CNC(=O)c1cccc(Nc2cccc(N3CC(Oc4ccc(Cl)cc4F)C3)c2)c1 [Example AG, 3-((3-(3-(4-chloro-2-fluorophenoxy)-1-azetidinyl)phenyl)amino)-N-methylbenzamide]
1.14 | CCNC(=O)c1cccc(Nc2ncnc(N3CC(Oc4ccc(Cl)cc4F)C3)n2)c1 [Example R, 3-(4-(3-(4-chloro-2-fluorophenoxy)azetidin-1-yl)-1,3,5-triazin-2-ylamino)-N-ethylbenzamide]
> 30 | CNC(=O)c1cc(F)cc(Nc2ncnc(N3CC(Oc4ccc(Cl)cc4F)C3)n2)c1 [Example S, 3-(4-(3-(4-chloro-2-fluorophenoxy)azetidin-1-yl)-1,3,5-triazin-2-ylamino)-5-fluoro-N-methylbenzamide]
0.63 | CNC(=O)c1cccc(Nc2nccc(N3CC(Oc4ccc(F)cc4Cl)C3)n2)c1 [Example I, 3-((4-(3-(2-chloro-4-fluorophenoxy)-1-azetidinyl)-2-pyrimidinyl)amino)-N-methylbenzamide]
2.99 | CNC(=O)c1cccc(Nc2ncnc(N3CC(Oc4ccc(Cl)cc4F)C3)n2)c1 [Example Q, 3-(4-(3-(4-chloro-2-fluorophenoxy)azetidin-1-yl)-1,3,5-triazin-2-ylamino)-N-methylbenzamide]
12.7 | CNC(=O)c1cccc(Nc2cc(N3CC(Oc4ccc(Cl)cc4F)C3)ncn2)c1 [Example Z, 3-((6-(3-(4-chloro-2-fluorophenoxy)-1-azetidinyl)-4-pyrimidinyl)amino)-N-methylbenzamide]
28.6 | CNC(=O)c1cccc(Nc2ncnc(N3CCC(OCc4ccc(OC(F)(F)F)cc4)CC3)n2)c1C [Example AD, N,2-dimethyl-3-((4-(4-((4-(trifluoromethoxy)benzyl)oxy)-1-piperidinyl)-1,3,5-triazin-2-yl)amino)benzamide]

Structure (SMILES) | IC50 [µM]
CNC(=O)c1cccc(Nc2nccc(N3CC(Oc4ccc(Cl)c(F)c4)C3)n2)c1 [Example K, 3-((4-(3-(4-chloro-3-fluorophenoxy)-1-azetidinyl)-2-pyrimidinyl)amino)-N-methylbenzamide] | 0.74
